The test deals with T1, human factor Xa (Homo sapiens, UniProt P00742).
T1 construct: factor Xa, a serine protease that occupies a pivotal position in the coagulation cascade
In words: Factor Xa inhibitory activity: inhibition of human factor Xa cleavage of substrate S-2765. It is filed as biochemical. The conditions noted are these: 30 pM human factor Xa, substrate S-2765 at its Km, pH 7.4, 37° C.; mean of replicates (SD, SEM and n in separate columns). Here is the method:
The ability of compounds to act as inhibitors of human factor Xa catalytic activity can be assessed by determination of the concentration of test substance that inhibits by 50% (IC50) the ability of human factor Xa to cleave the chromogenic substrate S2765 (N-CBz-D-Arg-L-Gly-L-Arg-p-nitroanilide. 2HCl).
The assay was performed in triplicate using a final concentration of 30 pM of human factor Xa (diluted in buffer containing 10 mM HEPES, 150 mM NaCl, 0.1% bovine serum albumin (BSA), pH 7.4). The substrate, S-2765 (N-CBz-D-Arg-L-Gly-L-Arg-p-nitroanilide, 2HCl), was run at a final concentration equal to its Km value. The (R) enantiomer was serially diluted in 100% DMSO (final assay concentration=2% DMSO) to final concentrations of 1.0 μM to […]. Dilutions were transferred to a black polystyrene 96-plate microtiter assay plate at a volume of 2.5 μL/well. […] The reactions were initiated by the addition of 50 μL of pre-warmed substrate and immediately placed in the microplate reader pre-warmed at 37° C.
A fluorometric plate reader was used to continuously monitor the rate of change in relative fluorescence units (RFUS) per unit time. The assay plate was mixed once before reading. The fluorogenic emission was read every 44 seconds for 30 minutes (excitation/emission of λex=390 nm and λex=460 nm; automatic cutoff=455 nm) at 37° C.

For two compounds, IC50 results are on record in patent publication US20080171773A1, “FACTOR Xa INHIBITOR” (Pfizer Inc, priority 2006, published 2008).

Structures are written as SMILES.

T1 sequence (P00742 235-488 limits assumed): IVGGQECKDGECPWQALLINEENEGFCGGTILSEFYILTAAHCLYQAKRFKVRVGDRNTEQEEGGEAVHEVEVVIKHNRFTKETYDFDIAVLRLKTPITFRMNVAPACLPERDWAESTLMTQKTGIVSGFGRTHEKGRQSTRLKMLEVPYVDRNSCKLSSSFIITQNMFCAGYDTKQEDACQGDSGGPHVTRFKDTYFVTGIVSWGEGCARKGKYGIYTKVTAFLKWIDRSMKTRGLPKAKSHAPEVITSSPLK
T1 sequence (P00742 41-179 partner limits assumed): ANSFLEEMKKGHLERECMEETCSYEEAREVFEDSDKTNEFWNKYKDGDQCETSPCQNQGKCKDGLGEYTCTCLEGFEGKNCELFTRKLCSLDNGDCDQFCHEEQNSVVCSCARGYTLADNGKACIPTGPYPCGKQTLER

One may read the IC50 as the concentration needed to halve the response being measured. A high value points to lower potency. As to `C[C@@]1(C(=O)Nc2ccc(-n3ccccc3=O)cc2F)CC=NN1C(=O)Nc1ccc(Cl)cc1` [(S) enantiomer, (S)-5-Methyl-4,5-dihydro-pyrazole-1,5-dicarboxylic acid 1-[(4-chloro-phenyl)-amide] 5-{[2-fluoro-4-(2-oxo-2H-pyridin-1-yl)-phenyl]-amide}], the 50% inhibitory concentration (IC50) is 141 nM.

With `C[C@]1(C(=O)Nc2ccc(-n3ccccc3=O)cc2F)CC=NN1C(=O)Nc1ccc(Cl)cc1` [(R) enantiomer, (R)-5-Methyl-4,5-dihydro-pyrazole-1,5-dicarboxylic acid 1-[(4-chloro-phenyl)-amide] 5-{[2-fluoro-4-(2-oxo-2H-pyridin-1-yl)-phenyl]-amide}], half-maximal inhibition (IC50) was put at 0.982 nM.
